± gives the expanded uncertainty stated by the source.
Details: Liquid; for mass density: Vibrating tube method; for speed of sound: Sing-around technique in a fixed-path interferometer

CCCOCCO [2-propoxyethanol]
Details | mass density, 100 kPa [kg/m3] | mass density, 101.33 kPa [kg/m3] | mass density, 2500 kPa [kg/m3] | mass density, 5000 kPa [kg/m3] | mass density, 10000 kPa [kg/m3] | mass density, 15000 kPa [kg/m3] | mass density, 20000 kPa [kg/m3] | mass density, 25000 kPa [kg/m3] | mass density, 30000 kPa [kg/m3] | speed of sound, 101.33 kPa [m/s]
293.15 K | 911 ± 2 | – | 913 ± 2 | 915 ± 2 | 918 ± 2 | 922 ± 2 | 925 ± 2 | 928 ± 2 | 931 ± 2 | –
298.15 K | – | 907.23 ± 0.15 | – | – | – | – | – | – | – | 1298.8 ± 3.1
303.15 K | 903 ± 2 | – | 904 ± 2 | 906 ± 2 | 910 ± 2 | 913 ± 2 | 917 ± 2 | 920 ± 2 | 923 ± 2 | –
313.15 K | 894 ± 2 | – | 896 ± 2 | 898 ± 2 | 901 ± 2 | 905 ± 2 | 908 ± 2 | 912 ± 2 | 915 ± 2 | –
323.15 K | 885 ± 2 | – | 887 ± 2 | 889 ± 2 | 893 ± 2 | 897 ± 2 | 900 ± 2 | 904 ± 2 | 907 ± 2 | –
333.15 K | 876 ± 2 | – | 878 ± 2 | 880 ± 2 | 884 ± 2 | 888 ± 2 | 892 ± 2 | 895 ± 2 | 899 ± 2 | –
343.15 K | 867 ± 2 | – | 869 ± 2 | 871 ± 2 | 875 ± 2 | 879 ± 2 | 883 ± 2 | 887 ± 2 | 891 ± 2 | –
353.15 K | 857 ± 2 | – | 860 ± 2 | 862 ± 2 | 866 ± 2 | 871 ± 2 | 875 ± 2 | 879 ± 2 | 882 ± 2 | –
363.15 K | 848 ± 2 | – | 850 ± 2 | 853 ± 2 | 857 ± 2 | 862 ± 2 | 866 ± 2 | 870 ± 2 | 874 ± 2 | –
373.15 K | 838 ± 2 | – | 840 ± 2 | 843 ± 2 | 848 ± 2 | 853 ± 2 | 858 ± 2 | 862 ± 2 | 866 ± 2 | –
383.15 K | 828 ± 2 | – | 830 ± 2 | 833 ± 2 | 839 ± 2 | 844 ± 2 | 849 ± 2 | 853 ± 2 | 858 ± 2 | –
393.15 K | 817 ± 2 | – | 820 ± 2 | 823 ± 2 | 829 ± 2 | 835 ± 2 | 840 ± 2 | 845 ± 2 | 849 ± 2 | –
403.15 K | 806 ± 2 | – | 810 ± 2 | 813 ± 2 | 819 ± 2 | 825 ± 2 | 831 ± 2 | 836 ± 2 | 841 ± 2 | –
413.15 K | 795 ± 2 | – | 799 ± 2 | 803 ± 2 | 810 ± 2 | 816 ± 2 | 822 ± 2 | 827 ± 2 | 832 ± 2 | –

CCOCCO [2-ethoxyethan-1-ol]
Details | mass density, 100 kPa [kg/m3] | mass density, 101.33 kPa [kg/m3] | mass density, 2500 kPa [kg/m3] | mass density, 5000 kPa [kg/m3] | mass density, 10000 kPa [kg/m3] | mass density, 15000 kPa [kg/m3] | mass density, 20000 kPa [kg/m3] | mass density, 25000 kPa [kg/m3] | mass density, 30000 kPa [kg/m3] | speed of sound, 101.33 kPa [m/s]
293.15 K | 931 ± 2 | – | 933 ± 2 | 934 ± 2 | 938 ± 2 | 941 ± 2 | 944 ± 2 | 947 ± 2 | 950 ± 2 | –
298.15 K | – | 925.64 ± 0.23 | – | – | – | – | – | – | – | 1305.7 ± 3.2
303.15 K | 922 ± 2 | – | 924 ± 2 | 925 ± 2 | 929 ± 2 | 932 ± 2 | 936 ± 2 | 939 ± 2 | 942 ± 2 | –
313.15 K | 913 ± 2 | – | 914 ± 2 | 916 ± 2 | 920 ± 2 | 924 ± 2 | 927 ± 2 | 930 ± 2 | 933 ± 2 | –
323.15 K | 903 ± 2 | – | 905 ± 2 | 907 ± 2 | 911 ± 2 | 915 ± 2 | 918 ± 2 | 922 ± 2 | 925 ± 2 | –
333.15 K | 894 ± 2 | – | 896 ± 2 | 898 ± 2 | 902 ± 2 | 906 ± 2 | 910 ± 2 | 913 ± 2 | 917 ± 2 | –
343.15 K | 884 ± 2 | – | 886 ± 2 | 889 ± 2 | 893 ± 2 | 897 ± 2 | 901 ± 2 | 905 ± 2 | 908 ± 2 | –
353.15 K | 874 ± 2 | – | 877 ± 2 | 879 ± 2 | 884 ± 2 | 888 ± 2 | 892 ± 2 | 896 ± 2 | 900 ± 2 | –
363.15 K | 864 ± 2 | – | 867 ± 2 | 869 ± 2 | 874 ± 2 | 879 ± 2 | 883 ± 2 | 887 ± 2 | 891 ± 2 | –
373.15 K | 854 ± 2 | – | 857 ± 2 | 859 ± 2 | 865 ± 2 | 869 ± 2 | 874 ± 2 | 878 ± 2 | 882 ± 2 | –
383.15 K | 843 ± 2 | – | 846 ± 2 | 849 ± 2 | 855 ± 2 | 860 ± 2 | 865 ± 2 | 869 ± 2 | 874 ± 2 | –
393.15 K | 832 ± 2 | – | 836 ± 2 | 839 ± 2 | 845 ± 2 | 850 ± 2 | 855 ± 2 | 860 ± 2 | 865 ± 2 | –

Reference: the NIST ThermoML archive (doi:10.1016/j.fluid.2017.10.027)
